What was measured:
[1] = system: CYP72A31-overexpressing rice (K31-4-6-2); assay: Drug sensitivity test on gellan gum medium, CYP72A31-overexpressing rice; format: in vivo, Oryza sativa; details: for CK ratio (%): plant height compared with drug-free medium
Experimental: Next, 1.6 g of Hoagland's mix (Sigma-Aldrich Corporation) and 3 g of Gelrite (Wako Pure Chemical Industries, Ltd.) were suspended in 1 L of distilled water. Then, the mixture was dissolved and heated in a microwave. After that, the mixture was cooled to 50 to 60 degree C., and BS was added at a final concentration of 1 μM. This mixture was dispensed into 30-mL tubular bottles at 15 mL to prepare a gellan gum medium. Next, CSSL rice paddies were soaked in 0.5% sodium hypochlorite for about 20 minutes, and were then washed well with water. These paddies were soaked in distilled water, and kept at 27 degree C. for 3 to 5 days for germination. Germinating seeds were softly planted in sprout-side up on the gellan gum medium. These samples, together with a beaker filled with distilled water, were placed in a transparent case, which was then covered with a clear-plastic wrap. These samples were grown at 27 degree C. under fluorescent light illumination (14 hours of a light period and 10 hours of a dark period) for 7 to 9 days.
According to the method of Example 1, a gellan gum medium containing a test drug at a concentration of 0.01, 0.1, 1, or 10 μM was prepared. Rice seeds were sterilized, germinated, seeded in the medium, and cultivated.

[2] = system: Rice (Nipponbare) calluses transformed with pCAMBIA1390-KasCYP72A31; assay: Selection of drug-resistant callus in N6D medium, pCAMBIA1390-KasCYP72A31; format: cell-based, Oryza sativa; details: 4 weeks
Experimental: Rice transformed with pCAMBIA1390-KasCYP72A31 was used to examine whether a Kasalath-derived CYP72A31 gene was able to be used as a selection marker for transformation with BS as a selection reagent. According to Example 5, rice (Nipponbare) was transformed with pCAMBIA1390-KasCYP72A31 or pSTARA-sGFP by using an Agrobacterium method.
Rice (Nipponbare) calluses transformed with pCAMBIA1390-KasCYP72A31 were cultured for 4 weeks in an N6D medium containing 0.1 or 0.25 μM BS or an N6D medium containing 50 ppm hygromycin to select drug-resistant calluses. Also, rice calluses transformed with pSTARA-sGFP were selected in a similar manner in an N6D medium containing 0.25 μM BS.

[3] = system: Arabidopsis thaliana K33-1-3 and K33-2-4; assay: Growth test in BS-containing medium, Arabidopsis transformed with Kasalath-derived CYP72A33; format: in vivo; details: day 10 from onset of cultivation, compared to NT
Text: In this Example, Agrobacterium as prepared in Example 4 was used to introduce HptII::35Spro::Kasalath CYP72A31::Tnos vector plasmid (pCAMBIA1390-KasCYP72A31), HptII::35Spro::Kasalath CYP72A32::Tnos vector plasmid (pCAMBIA1390-KasCYP72A32), or HptII::35Spro::Kasalath CYP72A33::Tnos vector plasmid (pCAMBIA1390-KasCYP72A33) into Arabidopsis thaliana (ecotype: Col-0) by using a floral-dip method. The floral-dip method followed a standard method. […] K31-4-2 and K31-6-5 were selected as fixed lines derived from pCAMBIA1390-KasCYP72A31; K32-1-1, K32-3-1, and K32-5-1 were selected as fixed lines derived from pCAMBIA1390-KasCYP72A32; and K33-1-3 and K33-2-4 were selected as fixed lines derived from pCAMBIA1390-KasCYP72A33. Their seeds were seeded in a medium containing each concentration of BS, and cultivated for 10 days. FIGS. 16A and 16B illustrate the results.
Next, 15 seeds for each of non-transformed Arabidopsis thaliana (NT which is denoted by “Col-0” in FIGS. 19A-19C) and transformed plant bodies (K33-1-3 which is denoted by “K33oe-1-3” in FIGS. 19A-19C and K33-2-4 which is denoted by “K33oe-2-4” in FIGS. 19A-19C) were cultivated on a medium containing each concentration of BS. […]

COc1cc(OC)nc(Oc2cccc(Oc3nc(OC)cc(OC)n3)c2C(=O)O)n1 [BS, bispyribac sodium]
Resistance of transformed rice to the drug ([1]; Table 4 and FIG. 25): exhibited resistance
Ratio of sensitivity ([1]; maximum drug concentration for CK ratio of 40% or more, K31-4-6-2 / wild-type rice): >100
CK ratio (%) ([1]; K31-4-6-2, drug 0.01 μM): 106%
CK ratio (%) ([1]; K31-4-6-2, drug 0.1 μM): 97%
CK ratio (%) ([1]; K31-4-6-2, drug 1 μM): 103%
CK ratio (%) ([1]; K31-4-6-2, drug 10 μM): 74%
Selection efficiency (ratio of the resulting transformed calluses/all calluses) ([2]; N6D medium containing 0.1 μM BS): 71%
Selection efficiency (ratio of the resulting transformed calluses/all calluses) ([2]; N6D medium containing 0.25 μM BS): 61%
BS sensitivity (germinated seeds, emerging of true leaves, fresh weight of above-ground part) [3]: BS sensitivity equivalent to NT

— patent publication US10000765B2, “Gene encoding cytochrome P450, and use thereof” (NATIONAL INSTITUTE OF AGROBIOLOGICAL SCIENCES, priority 2011, dated 2018)
